System: KRAS-mutant PDC complex spheroid viability
Assay: Anticancer human tumor 186277-243-T-J2-PDC patient-derived colon adenocarcinoma cell line growth inhibition [KRAS2]
Details: for viability, T/C: stronger effect = lower value
Description: Multicellular complex tumor spheroid response to RAS pathway inhibitors in combination with a targeted agents in patient-derived cell lines with oncogenic KRAS variants from multiple cancer types
A high-throughput screen of multi-cell type tumor spheroids was designed to identify active combinations of targeted small molecules and KRAS pathway inhibitors. Complex spheroids include a stromal component modeled by human endothelial cells (HUVEC) and fibroblasts modeled by human mesenchymal stem cells (MSCs). The concentration ranges selected for each drug and investigational agent were based upon clinically achievable concentrations if the clinical Cmax of the agent was known.
Compounds. The drugs and investigational agents: BI-3406 (NSC825286), BAY-293 (NSC824723), batoprotafib (TNO155; NSC825523), sotorasib (AMG 510; NSC818433), MRTX1257 (NSC819558), elimusertib (BAY 1895344; NSC800525), molibresib (GSK525762; NSC774829), temuterkib (LY3214996; NSC803410), venetoclax (NSC766270), alisertib (NSC759677), olaparib (NSC753686), talazoparib (NSC767125), erdafitinib (NSC781556), ipatasertib (NSC767898), cabozantinib (NSC761068), nintedanib (NSC756659), abemaciclib (NSC768073), docetaxel (NSC628503), trametinib (NSC758246), and sapanisertib (NSC764658) were obtained from the National Cancer Institute (NCI) Developmental Therapeutics Program Chemical Repository. The FDA-approved anticancer drug set is available from the Developmental Therapeutics Program. […] The stock solutions were prepared in dimethyl sulfoxide (DMSO, Sigma-Aldrich, St. Louis, MO, cat. D2650) at 800-fold the tested concentration and stored at -70 degrees C prior to their use. All drugs and investigational agents were tested over a range starting from a high concentration at or near the clinical Cmax and decreasing in half-log increments. If the clinical Cmax for an agent had not been determined, the highest concentration tested was 10 microM.
Cell Culture. All cells were maintained in an incubator at 37 degrees C and 5% CO2 with 95% humidity. The PDC lines were cultured according to standard operating procedures established by the NCI PDMR (https://pdmr.cancer.gov/sops/default.htm). Briefly, all PDCs were thawed and cultured in Matrigel-coated flasks prepared with a working solution of 1X Ham's F-12 nutrient mix, without supplementation (Invitrogen, Waltham, MA, cat. 11765054), 100 U/mL penicillin-streptomycin (Invitrogen, cat. 15140122), and 2.5% Matrigel (Corning Inc., Corning, NY, cat. 354248) for the first three passages. All PDCs were cultured in complete DMEM/F-12 media containing advanced DMEM/F-12 (Invitrogen, cat. 12634028), 4.9% defined fetal bovine serum, heat inactivated (HyClone Laboratories Inc., Logan, UT, cat. SH30070.03HI), 389 ng/mL hydrocortisone (Sigma-Aldrich, cat. H4001), 9.7 ng/mL human EGF recombinant protein (Invitrogen, cat. PHG0313), 23.4 microg/mL adenine (Sigma-Aldrich, cat. A2786), 97.3 U/mL penicillin-streptomycin (Invitrogen, cat. 15140122), 1.9 mM L-glutamine (Invitrogen, cat. 25030081), and 9.7 microM Y-27632 dihydrochloride (Tocris Bioscience, Bristol, United Kingdom, cat. 1254). The PDCs were cultured in complete DMEM/F12 media without 9.7 microM Y-27632 dihydrochloride for at least two passages prior to the screen. The established cell line HOP-62 was cultured in RPMI 1640 medium, HEPES (Invitrogen, cat. 22400105) with 10% defined fetal bovine serum (HyClone Laboratories Inc., cat. SH30070.03) and 2 mM L-glutamine (Invitrogen, cat. 25030081). The pooled donor HUVEC were cultured in endothelial cell growth medium 2 (PromoCell, Heidelberg, Germany, cat. C-22011) and the hMSC were cultured in mesenchymal stem cell growth medium 2 (PromoCell, cat. C-28009). For all experiments, HUVEC and hMSC were used at passages </=5, while the malignant cell lines were used at passages </=15. […]

[1] = curve of first compound, second compound 0.1 µM
[2] = curve of first compound, second compound 0.316 µM
[3] = curve of first compound, second compound 1 µM
[4] = curve of first compound, second compound 3.16 µM
[5] = curve of first compound, second compound 10 µM
[6] = second compound 0.1 µM, first compound 0.0316 µM
[7] = second compound 0.1 µM, first compound 0.1 µM
[8] = second compound 0.1 µM, first compound 0.316 µM
[9] = second compound 0.1 µM, first compound 1 µM
[10] = second compound 0.1 µM, first compound 3.16 µM
[11] = second compound 0.1 µM, first compound 10 µM
[12] = second compound 0.316 µM, first compound 0.0316 µM
[13] = second compound 0.316 µM, first compound 0.1 µM
[14] = second compound 0.316 µM, first compound 0.316 µM
[15] = second compound 0.316 µM, first compound 1 µM
[16] = second compound 0.316 µM, first compound 3.16 µM
[17] = second compound 0.316 µM, first compound 10 µM
[18] = second compound 1 µM, first compound 0.0316 µM
[19] = second compound 1 µM, first compound 0.1 µM
[20] = second compound 1 µM, first compound 0.316 µM
[21] = second compound 1 µM, first compound 1 µM
[22] = second compound 1 µM, first compound 3.16 µM
[23] = second compound 1 µM, first compound 10 µM
[24] = second compound 3.16 µM, first compound 0.0316 µM
[25] = second compound 3.16 µM, first compound 0.1 µM
[26] = second compound 3.16 µM, first compound 0.316 µM
[27] = second compound 3.16 µM, first compound 1 µM
[28] = second compound 3.16 µM, first compound 3.16 µM
[29] = second compound 3.16 µM, first compound 10 µM
[30] = second compound 10 µM, first compound 0.0316 µM
[31] = second compound 10 µM, first compound 0.1 µM
[32] = second compound 10 µM, first compound 0.316 µM
[33] = second compound 10 µM, first compound 1 µM
[34] = second compound 10 µM, first compound 3.16 µM
[35] = second compound 10 µM, first compound 10 µM
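Throughout, for viability, T/C: viability read after seven days of compound exposure; 100% = DMSO vehicle-treated spheroids so lower means less viable.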

SMILES | IC50 [1] [nM] | IC50 [2] [nM] | IC50 [3] [nM] | IC50 [4] [nM] | IC50 [5] [nM] | viability, T/C [6] [%] | viability, T/C [7] [%] | viability, T/C [8] [%] | viability, T/C [9] [%] | viability, T/C [10] [%] | viability, T/C [12] [%] | viability, T/C [13] [%] | viability, T/C [14] [%] | viability, T/C [15] [%] | viability, T/C [16] [%] | viability, T/C [18] [%] | viability, T/C [19] [%] | viability, T/C [20] [%] | viability, T/C [21] [%] | viability, T/C [22] [%] | further results
CC(C)n1nc(-c2ccc3oc(N)nc3c2)c2c(N)ncnc21 |  |  |  |  |  |  |  |  |  |  |  |  |  |  |  |  |  |  |  |  | viability, T/C (compound 0.000316 µM): 95.7% [middle of 5 runs]; viability, T/C (compound 0.001 µM): 98.8% [middle of 5 runs]; viability, T/C (compound 0.00316 µM): 77.8% [middle of 5 runs]; viability, T/C (compound 0.01 µM): 56.7% [middle of 5 runs]; viability, T/C (compound 0.0316 µM): 32.1% [middle of 5 runs]; viability, T/C (compound 0.1 µM): 19.2% [middle of 5 runs]; IC50 (curve of compound): 14.1 nM [middle of 5 runs]
CC(C)NCC(C(=O)N1CCN(c2ncnc3c2C(C)CC3O)CC1)c1ccc(Cl)cc1 (stereo unspecified) + C=CC(=O)N1CCN(c2nc(=O)n(-c3c(C)ccnc3C(C)C)c3nc(-c4c(O)cccc4F)c(F)cc23)C(C)C1 | 615 | 650 | 636 | 271 | 51.3 | 102 | 99.5 | 63.7 | 37.5 | 27.9 | 106 | 93.6 | 63.2 | 41.1 | 23.9 | 109 | 103 | 66.5 | 36.7 | 26.3 | viability, T/C [11]: 13.4%; viability, T/C [17]: 11.8%; viability, T/C [23]: 10.6%; viability, T/C [24]: 100%; viability, T/C [25]: 85.1%; viability, T/C [26]: 40.9%; viability, T/C [27]: 25.7%; viability, T/C [28]: 14.3%; viability, T/C [29]: 8.27%; viability, T/C [30]: 70.3%; viability, T/C [31]: 20.1%; viability, T/C [32]: 15.9%; viability, T/C [33]: 8.02%; viability, T/C [34]: 6.56%; viability, T/C [35]: 2.87%
CC1(C)CCC(CN2CCN(c3ccc(C(=O)NS(=O)(=O)c4ccc(NCC5CCOCC5)c([N+](=O)[O-])c4)c(Oc4cnc5[nH]ccc5c4)c3)CC2)=C(c2ccc(Cl)cc2)C1 + C=CC(=O)N1CCN(c2nc(=O)n(-c3c(C)ccnc3C(C)C)c3nc(-c4c(O)cccc4F)c(F)cc23)C(C)C1 | 1890 | 2100 | 1950 | 1690 | 373 | 107 | 89.6 | 90.8 | 108 | 10.6 | 97.7 | 104 | 102 | 98.5 | 23.3 | 97.8 | 97.9 | 94.1 | 106 | 14.3 | viability, T/C [11]: 0.45%; viability, T/C [17]: 1.48%; viability, T/C [23]: 0.49%; viability, T/C [24]: 99.9%; viability, T/C [25]: 110%; viability, T/C [26]: 96.7%; viability, T/C [27]: 85%; viability, T/C [28]: 8.01%; viability, T/C [29]: 0.76%; viability, T/C [30]: 61.1%; viability, T/C [31]: 69.4%; viability, T/C [32]: 48.6%; viability, T/C [33]: 32%; viability, T/C [34]: 1.91%; viability, T/C [35]: 0.62%
CC1COCCN1c1cc(-c2ccnn2C)c2ccnc(-c3ccn[nH]3)c2n1 (stereo unspecified) + C=CC(=O)N1CCN(c2nc(=O)n(-c3c(C)ccnc3C(C)C)c3nc(-c4c(O)cccc4F)c(F)cc23)C(C)C1 | 22 | 22.6 | 17.9 | 17 | < 10 | 32.6 | 5.89 | 4.33 | 3.67 | 4.31 | 31.5 | 6.35 | 4.65 | 3.68 | 4.54 | 24.2 | 7.17 | 5.13 | 4.4 | 5.82 | viability, T/C (second compound 0.1 µM, first compound 0.01 µM): 87.5%; viability, T/C (second compound 0.316 µM, first compound 0.01 µM): 94.6%; viability, T/C (second compound 3.16 µM, first compound 0.01 µM): 79.5%; viability, T/C [24]: 15.3%; viability, T/C [25]: 7.75%; viability, T/C [26]: 5.93%; viability, T/C [27]: 6.25%; viability, T/C [28]: 8.7%; viability, T/C (second compound 10 µM, first compound 0.01 µM): 19.3%; viability, T/C [30]: 11.3%; viability, T/C [31]: 9.23%; viability, T/C [32]: 8.93%; viability, T/C [33]: 11.2%; viability, T/C [34]: 14.7%

From PubChem BioAssay AID1963875 (Molecular Pharmacology Branch, DTP, NCI, 2024)
